Assay [1] addresses T1, LTD4 -induced contractions of guinea-pig trachea (Cavia porcellus, UniProt Q2NNR5).
T1 construct: contractions of guinea-pig tracheae; from tissue; host or cells: guinea-pig trachea
T1 sequence (Q2NNR5 1-340): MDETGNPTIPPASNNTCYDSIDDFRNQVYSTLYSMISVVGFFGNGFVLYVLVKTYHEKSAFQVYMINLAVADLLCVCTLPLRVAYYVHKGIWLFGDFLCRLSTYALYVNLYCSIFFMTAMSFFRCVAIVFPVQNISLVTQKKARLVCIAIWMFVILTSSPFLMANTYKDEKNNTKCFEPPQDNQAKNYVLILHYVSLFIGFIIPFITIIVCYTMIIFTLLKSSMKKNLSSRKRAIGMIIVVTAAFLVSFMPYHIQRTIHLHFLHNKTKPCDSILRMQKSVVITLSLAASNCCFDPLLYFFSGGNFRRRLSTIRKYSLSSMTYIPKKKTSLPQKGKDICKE
Nature of the assay: inhibition of LTD4-induced contractions of guinea-pig trachea. The assay is classed as cell-based. The note with it: for Kb: read-out: pKB values for the inhibition of LTD4 -induced contractions of guinea-pig trachea (converted). From the text:
(§1) The representative preparations used to evaluate these compounds were the inhibition of ^3 H-LTD4 binding to guinea-pig lung membranes, as described in EP 494621, and the inhibition of both LTD4 -induced and LTC4 -induced contractions of guinea-pig tracheae as described by Tudhope et al., Eur. J. Pharmacol (1994) 264, 317-323.

Assay [2] deals with T2, ^3 H-LTD4 binding to guinea-pig lung membranes (Cavia porcellus, UniProt Q2NNR5).
T2 construct: from tissue; host or cells: guinea-pig lung membranes
T2 sequence (Q2NNR5 1-340): T1 sequence (Q2NNR5 1-340)
Nature of the assay: inhibition of ^3 H-LTD4 binding to guinea-pig lung membranes. The note with it: for Ki: read-out: pKi values for the inhibition of ^3 H-LTD4 binding to guinea-pig lung membranes (converted).
From the text: as §1

The target in assay [3] is T3, LTC4 -induced contractions of guinea-pig trachea (Cavia porcellus, UniProt H0VW05).
T3 construct: contractions of guinea-pig tracheae; from tissue; host or cells: guinea-pig trachea
T3 sequence (H0VW05 1-317): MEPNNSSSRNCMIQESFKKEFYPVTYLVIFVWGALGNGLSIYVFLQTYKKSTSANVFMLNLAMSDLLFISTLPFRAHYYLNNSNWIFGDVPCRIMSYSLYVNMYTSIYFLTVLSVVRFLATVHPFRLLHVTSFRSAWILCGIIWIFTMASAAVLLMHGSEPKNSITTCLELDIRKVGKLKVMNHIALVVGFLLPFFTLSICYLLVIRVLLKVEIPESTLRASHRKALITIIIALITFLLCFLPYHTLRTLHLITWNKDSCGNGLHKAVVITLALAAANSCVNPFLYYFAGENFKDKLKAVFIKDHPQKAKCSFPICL
Briefly: inhibition of LTC4-induced contractions of guinea-pig trachea. The assay is classed as cell-based. Conditions: read-out: pKB values for the inhibition of LTC4 -induced contractions of guinea-pig trachea (converted).
From the text: as §1

The subject of another assay is both receptor types. The note with it: Tudhope et al., Eur. J. Pharmacol. (1994) 264, 317-323; cited from earlier work.

For the compound `O=C(O)CCCSc1cc(C(=O)O)ccc1NC(=O)CCc1ccc(OCCCCOc2ccccc2)cc1` [Example 20], in assay [1], the Kb is 0.316 µM.

As for `O=C(O)CCCC(=O)Nc1cc(C(=O)O)ccc1OCCc1ccc(OCCCCOc2ccccc2)cc1` [Example 15], the “pKi values for the inhibition of ^3 H-LTD4 binding to guinea-pig lung membranes” value (shortened to “pKi values for the inhibition”) in assay [2] worked out at 5.3. Besides, in assay [1], the “pKB values for the inhibition of LTD4 -induced contractions of guinea-pig trachea” value (shortened to “pKB values for the inhibition of LTD4”) turned out to be 6.4.

As for `O=C(O)c1cccc(NC(=O)c2cc(C(=O)O)ccc2OCCCc2ccc(OCCCCOc3ccccc3)cc2)c1` [Example 8, N-(3-carboxyphenyl)-2-[3-{4-phenoxybutoxy}phenylpropoxy]-5-carboxybenzamide], the Kb in assay [1] is 0.631 µM. For `O=C(CCc1ccc(OCCCCOc2ccccc2)cc1)Nc1ccc(C(=O)O)cc1C(=O)O` [Example 22], in assay [2], the Ki was 0.251 µM. Besides, the Kb in assay [1] is 0.0501 µM.

Take `O=C(O)CCCC(=O)c1cc(C(=O)O)ccc1NC(=O)CCc1ccc(OCCCCOc2ccccc2)cc1` [Example 21]: the Kb in assay [1] is 0.0316 µM. Take `O=C(O)CCCNC(=O)c1cc(C(=O)O)ccc1OCCCc1cccc(OCCCCOc2ccccc2)c1` [Example 36, 5-aza-6-(5-carboxy-2-(3-[3-{4-phenoxybutoxy}phenyl]propoxy)phenyl)-6-oxohexanoic acid]: the Ki in assay [2] is 25.1 µM. `O=C(O)CCCCC(=O)Nc1cc(C(=O)O)ccc1OCCCc1ccc(OCCCCOc2ccccc2)cc1` [Example 12]: the Ki in assay [2] is 1 µM. Moreover, the Kb in assay [1] is 0.251 µM; in assay [3] it was 0.501 µM.

As to `O=C(O)CCCNC(=O)c1cc(C(=O)O)ccc1OCCCc1ccc(OCCCCOc2ccccc2)cc1` [Example 4], in assay [2], the Ki is 0.794 µM. Further, the Kb in assay [1] is 0.126 µM; in assay [3] it was 0.0631 µM. Turning to `CS(=O)(=O)Nc1ccc(OCCCc2ccc(OCCCCOc3ccccc3)cc2)c(C(=O)O)c1` [Example 29, 2-(3-[4-{4-phenoxybutoxy}phenyl]propoxy)-5-(methylsulfonylamino)benzoic acid], the Ki in assay [2] is 2 µM. In assay [1], the Kb is 2 µM. As for `O=C(O)CCCC(=O)Nc1cc(C(=O)O)ccc1SCCc1ccc(OCCCCOc2ccccc2)cc1` [Example 33], the “pKB values for the inhibition of LTD4” value in assay [1] amounted to 6.6. For the compound `O=C(O)CCCCCOc1cc(C(=O)O)ccc1NC(=O)CCc1ccc(OCCCCOc2ccccc2)cc1` [Example 18], the Ki in assay [2] is 0.631 µM. The Kb in assay [1] was 0.0794 µM. For `O=C(O)CCC(=O)Nc1cc(C(=O)O)ccc1OCCCc1ccc(OCCCCOc2ccccc2)cc1` [Example 13], the Ki in assay [2] is 1 µM. Further, the Kb in assay [1] is 0.126 µM. As for `CCCCC/C=C\C\C=C/C=C/C=C/[C@@H](Sc1ccc(C(=O)O)cc1)[C@@H](O)CCCC(=O)O` [Compound A], the “activity at both receptor types” value in the assay on both receptor types is reported as “comparable activity at both receptor types”. For the compound `O=C(O)CCC(=O)Nc1cc(C(=O)O)ccc1SCCc1ccc(OCCCCOc2ccccc2)cc1` [Example 32, 5-aza-5-(5-carboxy-2-(3-[4-{4-phenoxybutoxy}phenyl]-1-thiapropyl) -phenyl)-4-oxopentanoic acid], in assay [1], the Kb is 0.316 µM. Regarding `O=C(O)COc1cc(C(=O)O)ccc1NC(=O)CCc1ccc(OCCCCOc2ccccc2)cc1` [Example 16], the Ki in assay [2] was 0.0501 µM. Also, the Kb in assay [1] was 0.0501 µM. Regarding `O=C(O)CC(=O)Nc1cc(C(=O)O)ccc1OCCCc1ccc(OCCCCOc2ccccc2)cc1` [Example 14], the Ki in assay [2] was 0.316 µM. For the same compound, the Kb in assay [1] was 0.251 µM. Take `O=C(O)c1ccc(NC(=O)c2cc(C(=O)O)ccc2OCCCc2ccc(OCCCCOc3ccccc3)cc2)cc1` [Example 10]: the Kb is 0.316 µM in assay [1] and 0.126 µM in assay [3]. In the case of `O=C(O)CCCOc1cc(C(=O)O)ccc1NC(=O)CCc1ccc(OCCCCOc2ccccc2)cc1` [Example 17], in assay [2], the Ki was 0.398 µM. Also, in assay [1], the Kb was 0.251 µM.

As for `O=C(Cc1ccc(OCCCCOc2ccccc2)cc1)Nc1ccc(C(=O)O)cc1C(=O)O` [Example 26], the Kb in assay [1] is 1.26 µM.

As for `CS(=O)(=O)Nc1ccc(OCCCc2ccc(OCCCCOc3ccccc3)cc2)c(C(=O)NCCC(=O)O)c1` [Example 31, 4-aza-5-(5-[methylsulfonylamino]-2-(3-[4-{4-phenoxybutoxy}phenyl]-propoxy)phenyl)-5-oxopentanoic acid], the Ki in assay [2] was 0.316 µM. Besides, the Kb in assay [1] is 3.98 µM.

As to `O=C(O)CNC(=O)c1cc(C(=O)O)ccc1OCCCc1ccc(OCCCCOc2ccccc2)cc1` [Example 5], the Ki in assay [2] is 0.398 µM. Besides, the Kb was 0.0794 µM in assay [1] and 1.26 µM in assay [3]. In the case of `CS(=O)(=O)Nc1ccc(SCCc2ccc(OCCCCOc3ccccc3)cc2)c(C(=O)NCCC(=O)O)c1` [Example 34, 5-aza-5-(5-methylsulfonylamino]-2-(3-[4-{4-phenoxybutoxy}phenyl]-1-thiapropyl)phenyl-4-oxopentanoic acid], the “pKi values for the inhibition” value in assay [2] came to 5.7. In assay [1], the “pKB values for the inhibition of LTD4” value is recorded as 5.6. On to `O=C(CCCc1ccc(OCCCCOc2ccccc2)cc1)Nc1ccc(C(=O)O)cc1C(=O)O` [Example 24, 3-carboxy-4-([4-{4-phenoxybutoxy}phenyl]-1-oxobutyl)aminobenzoic acid], for which, in assay [2], the Ki is 0.501 µM. Moreover, the Kb in assay [1] is 0.0501 µM. For `O=C(CCc1ccc(OCCCCOc2ccccc2)cc1)Nc1cc(C(=O)O)cc(C(=O)O)c1` [Example 23] the same measures were 3.16 µM and 1.26 µM. For `O=C(CCCc1ccc(OCCCCOc2ccccc2)cc1)Nc1cc(C(=O)O)cc(C(=O)O)c1` [Example 25, 3-carboxy-5-([4-{4-phenoxybutoxy}phenyl]-1-oxobutyl)aminobenzoic acid], the Ki in assay [2] was 1.58 µM. In addition, in assay [1], the Kb was 1.58 µM. Turning to `O=C(O)CCCCNC(=O)c1cc(C(=O)O)ccc1OCCCc1ccc(OCCCCOc2ccccc2)cc1` [Example 7], the “pKi values for the inhibition” value in assay [2] came to 5.7. Besides, the “pKB values for the inhibition of LTD4” value in assay [1] stood at 6.6.

As to `O=C(O)CCNC(=O)c1cc(C(=O)O)ccc1OCCCc1ccc(OCCCCOc2ccccc2)cc1` [Example 6], the Ki in assay [2] is 0.251 µM. Also, the Kb in assay [1] and in assay [3] was 0.0794 µM each time.

For the compound `O=C(O)CCCC(=O)Nc1cc(C(=O)O)ccc1OCCCc1ccc(OCCCCOc2ccccc2)cc1` [Example 11], the Ki in assay [2] was 1.58 µM. For the same compound, the values for the Kb in assay [1] and in assay [3] were 0.251 µM and 1 µM, respectively. Consider `O=C(O)c1cc(NS(=O)(=O)c2ccccc2)ccc1OCCCc1ccc(OCCCCOc2ccccc2)cc1` [Example 30, 2-(3-[4-{4-phenoxybutoxy}phenyl]propoxy)-5-(phenylsulfonylamino)benzoic acid], for which, in assay [2], the Ki was 5.01 µM. For the same compound, the Kb in assay [1] was 20 µM.
